According to patent US20070265451A1, “Process for the preparation of oxazolidinones and method of use thereof” (Board of Trustees of Michigan State University, priority 2001, published 2007):
Values after ≈ are worked out from the molar mass of the structure shown.

Assays:
[1] = tested on: Staphylococcus aureus 29213; assay: Broth microdilution MIC, Staphylococcus aureus ATCC 29213; assay type: cell-based; details: for MIC: Staphylococcus aureus, ATCC29213, Table 2, read-out: MIC(90-100) SA-ATCC 29213; for MIC(90-100) SA-ATCC 29213: Table 2
From the text: See, NCCLS document M7-A5. Methods for Dilution Antimicrobial Susceptibility Tests for Bacteria That Grow Aerobically; Approved Standard-Fifth Edition. Volume 20, Number 2. January 2000, (ISBN 1-56238-394-9) and Lorian V. Antibiotics. Laboratory Medicine. 4th ed. Baltimore: Williams and Wilkins, pp. 52-111 (1996). For subsequent testing, the following strains have been used: Staphylococcus aureus NRS4 (992; HIP5836; New Jersey) (Smith et al., New Engl. J. Med. 340: 493-501 (1999); Tenover et al., J. Clin. Microbiol. 36: 1020-1027 (1998)), Staphylococcus aureus NRS3 (963sm; HIP5827; Michigan) (Smith et al., ibid.; Tenover et al., ibid.), Staphylococcus aureus NRS103 (Becker) (Karakawa and Vann, Sem. Infect. Dis. 4: 285 (1982), Staphylococcus aureus NRS102 (Reynolds) Karakawa and Vann, ibid; McMurray et al., JID 162: 759-762 (1990)), Staphylococcus epidermidis NRS101 (ATCC 35984), Streptococcus pneumoniae (ATCC 49619), Enterococcus faecalis (ATCC 51299), and Staphylococcus aureus (ATCC 43300.
Stock cultures of these strains were obtained by seeding colonies from overnight streak plates (Tryptic Soy Agar II (TSAII) and 5% sheep's blood (SB) agar plates: Becton Dickinson, CA#2211261) into sterile Mueller-Hinton Broth (MHB)(Becton Dickinson, CA#211443) and growing the suspensions to mid-late log phase in 13 mL screw-cap tubes. Glycerol (Sigma, CA#G-6279) was sterilized by autoclaving for 15 minutes at 121° C. in 6 mL volumes, and then stored at 2-8° C. This was diluted to 20% in dH2O, and then added 1:1 (250 μL:250 μL, 10% final glycerol concentration) to the logarithmically growing bacterial suspension of each strain. Tubes were frozen and stored at −70° C. Purity of the stock cultures was tested by thawing one tube of each strain in a water bath at 37° C. and plating them on TSAII with 5% SB. Plates were incubated overnight at 37° C. and colonies were examined for morphology. Growth curves and approximate CFU/mL were also obtained.
High purity substituted oxazolidinones prepared according to the method of the present invention and a ZYVOX standard (ZYVOX is a trade name for linezolid available from Pharmacia Corporation) were provided by Synthon Corporation, Monmouth Junction, N.J. Compounds were dissolved at 10 mg/mL in DMSO, as after a dilution of approx. 39.0 to reach the desired final starting concentration of 256 ug/ml, the concentration of DMSO is approximately 2.5%. Compounds were then stored at room temperature (25° C.) in the dark.
Antimicrobial susceptibility screening was as follows. All compounds were initially screened for activity in duplicate at 256 μg/mL (2.5% DMSO), including ZYVOX, the positive control for antimicrobial activity. A single well of bacterially inoculated 2.5% DMSO served as a positive control for bacterial growth, while a well of DMSO inoculated with of 50 μL of sterile 0.9% saline served as a negative growth control. Controls were prepared on every microplate, so that 46 was the maximum number of compounds that were screened per plate. Broth was pipetted into sterile microcentrifuge tubes, to which the compounds were then added (1:19.53 dilution or 2× final concentration). Each tube was vortexed, and 50 μL was immediately transferred to the microplate wells for each strain. Solubility was assessed by visual observation. MB (medium broth solubility) was recorded if the solution appeared only slightly cloudy. LB (low broth solubility) was recorded if the solution was extremely cloudy, and especially if larger, clumpy precipitates formed. Bacteria were grown as described above, although absorbance was measured at 650 nm and bacteria were diluted to an initial OD of 0.12-0.15. Bacteria were then further diluted 1:100 with 0.9% sterile saline. Within 15 minutes of this final dilution, 50 μL of this suspension was added to each well for a final volume of […], and a final bacterial concentration of 1×10^5 CFU/mL (except for the negative control well). Plates were grown as above and all observations were recorded. […]

[2] = tested on: Enterococcus faecalis 29212; assay: Broth microdilution MIC, Enterococcus faecalis ATCC 29212; assay type: cell-based; details: for MIC: Enterococcus faecalis, ATCC29212, Table 2, read-out: MIC(90-100) EF-ATCC 29212; for MIC(90-100) EF-ATCC 29212: Table 2

MIC [1] [µg/mL]	Structure (SMILES)	other results
250 (≈ 579 µM)	CC(C)(C)C(=O)CN1C[C@@H](COS(=O)(=O)c2ccc(Cl)c3nonc23)OC1=O [Compound 34, (S)-3-(3,3-dimethyl-2-butone)-5-(7-chloro-2,1,3-benzoxadiazole-4-sulfonyloxymethyl)-2-oxazolidinone]	–
62.5 (≈ 183 µM)	C=CCN1CC(COS(=O)(=O)c2ccc([N+](=O)[O-])cc2)OC1=O (centres unmarked) [Compound 108]	–
31.3 (≈ 88.3 µM)	CC#CCN1CC(COS(=O)(=O)c2ccc([N+](=O)[O-])cc2)OC1=O (centres unmarked) [Compound 110]	–
125 (≈ 259 µM)	COc1ccc(C(=O)CN2CC(COS(=O)(=O)c3ccc(Cl)c4nonc34)OC2=O)cc1 (centres unmarked) [Compound 254]	–
62.5 (≈ 167 µM)	C=CCN1CC(COS(=O)(=O)c2ccc(Cl)c3nonc23)OC1=O (centres unmarked) [Compound 255]	MIC [2]: 250 µg/mL (≈ 669 µM)
15.6 (≈ 49.3 µM)	CN1CC(COS(=O)(=O)c2ccc([N+](=O)[O-])cc2)OC1=O (centres unmarked) [Compound 266]	–
125 (≈ 313 µM)	CCC#CCN1CC(COS(=O)(=O)c2ccc(Cl)c3nonc23)OC1=O (centres unmarked) [Compound 276]	MIC [2]: 250 µg/mL (≈ 625 µM)
250 (≈ 496 µM)	CCOC(=O)CC(C)(C)C(=O)CN1C[C@@H](COS(=O)(=O)c2ccc(Cl)c3nonc23)OC1=O [Compound 291]	–
250 (≈ 551 µM)	COc1cccc(CN2CC(COS(=O)(=O)c3ccc(Cl)c4nonc34)OC2=O)c1 (centres unmarked) [Compound 323]	MIC [2]: 125 µg/mL (≈ 275 µM)
62.5 (≈ 158 µM)	O=C1O[C@H](COS(=O)(=O)c2ccc([N+](=O)[O-])cc2)CN1C(=O)c1ccco1 [Compound 334]	–
62.5 (≈ 144 µM)	CCOC(=O)/C=C/N1CC(COS(=O)(=O)c2ccc(Cl)c([N+](=O)[O-])c2)OC1=O (centres unmarked) [Compound 695]	–
64 (≈ 186 µM)	CC(C)N1C[C@@H](CNS(=O)(=O)c2ccc([N+](=O)[O-])cc2)OC1=O [Compound 860]	–
256 (≈ 542 µM)	CCOC(=O)CC(C)(C)C(=O)CN1C[C@H](COS(=O)(=O)c2ccc([N+](=O)[O-])cc2)OC1=O [Compound 921]	–
256 (≈ 640 µM)	CCC#CCN1C[C@H](COS(=O)(=O)c2ccc(Cl)c3nonc23)OC1=O [Compound 924]	–
16 (≈ 44.7 µM)	CC(=O)CN1C[C@@H](COS(=O)(=O)c2ccc([N+](=O)[O-])cc2)OC1=O [Compound 1063]	–
256 (≈ 657 µM)	CC(=O)CN1C[C@@H](COS(=O)(=O)c2ccc(Cl)c3nonc23)OC1=O [Compound 1066]	–
256 (≈ 652 µM)	CC(=O)CN1C[C@@H](COS(=O)(=O)c2ccc(Cl)c([N+](=O)[O-])c2)OC1=O [Compound 1081]	–
64 (≈ 164 µM)	CCCCN1CC(COS(=O)(=O)c2ccc(Cl)c3nonc23)OC1=O (centres unmarked) [Compound 1141]	MIC [2]: 128 µg/mL (≈ 328 µM)
128 (≈ 320 µM)	CCOC(=O)/C=C/N1C[C@@H](COS(=O)(=O)c2ccc([N+](=O)[O-])cc2)OC1=O [Compound 1160]	–

The next lines start with the compound.

Structure (SMILES)	MIC [1] [µg/mL]	other results
C#CCN1CC(COS(=O)(=O)c2ccc(Cl)c3nonc23)OC1=O (centres unmarked) [Compound 235]	62.5 (≈ 168 µM)	–
C#CCN1CC(COS(=O)(=O)c2ccc([N+](=O)[O-])cc2)OC1=O (centres unmarked) [Compound 236]	31.3 (≈ 92 µM)	–
O=C1O[C@H](COS(=O)(=O)c2ccc([N+](=O)[O-])cc2)CN1C(=O)C1CC1 [Compound 250]	250 (≈ 675 µM)	–
O=C(CN1C[C@@H](COS(=O)(=O)c2ccc(Cl)c3nonc23)OC1=O)C1CC1 [Compound 260]	250 (≈ 601 µM)	–
CC(C)(C)C(=O)CCN1C[C@@H](COS(=O)(=O)c2ccc([N+](=O)[O-])cc2)OC1=O [Compound 272]	250 (≈ 603 µM)	–
CCCCN1CC(COS(=O)(=O)c2ccc(Cl)c3nonc23)OC1=O (centres unmarked) [Compound 285]	–	MIC(90-100) EF-ATCC 29212 [2]: 250 µg/mL (≈ 641 µM); MIC(90-100) SA-ATCC 29213 [1]: 62.5 µg/mL (≈ 160 µM)
CCC#CCN1CC(COS(=O)(=O)c2ccc([N+](=O)[O-])cc2)OC1=O (centres unmarked) [Compound 294]	31.3 (≈ 85 µM)	MIC [2]: 250 µg/mL (≈ 679 µM)
COc1ccc(C(=O)CN2CC(COS(=O)(=O)c3sc(NC(C)=O)nc3C)OC2=O)c(OC)c1 (centres unmarked) [Compound 324]	62.5 (≈ 122 µM)	MIC [2]: 250 µg/mL (≈ 487 µM)
O=C(CN1CC(COS(=O)(=O)c2ccc(Cl)c3nonc23)OC1=O)c1ccc(F)cc1 (centres unmarked) [Compound 369]	250 (≈ 532 µM)	MIC [2]: 31.3 µg/mL (≈ 66.6 µM)
CCOC(=O)/C=C/N1CC(COS(=O)(=O)C2=CC=C([N+](=O)[O-])CC2)OC1=O (centres unmarked) [Compound 388]	125 (≈ 311 µM)	–
O=C(CN1CC(COS(=O)(=O)c2ccc(Cl)c3nonc23)OC1=O)c1ccc(F)cc1 (centres unmarked) [Compound 401]	–	MIC(90-100) EF-ATCC 29212 [2]: 62.5 µg/mL (≈ 133 µM); MIC(90-100) SA-ATCC 29213 [1]: 250 µg/mL (≈ 532 µM)
CC(C)(C)CC(=O)CN1C[C@@H](COS(=O)(=O)c2ccc([N+](=O)[O-])cc2)OC1=O [Compound 533]	125 (≈ 302 µM)	–
O=C(CN1C[C@@H](COS(=O)(=O)c2ccc([N+](=O)[O-])cc2)OC1=O)N1CCOCC1 [Compound 589]	125 (≈ 291 µM)	–
COC(=O)CN1C[C@@H](COS(=O)(=O)c2ccc([N+](=O)[O-])cc2)OC1=O [Compound 669]	62.5 (≈ 167 µM)	–
COC(=O)CN1C[C@@H](COS(=O)(=O)c2ccc(Cl)c3nonc23)OC1=O [Compound 674]	250 (≈ 616 µM)	MIC [2]: 125 µg/mL (≈ 308 µM)
CC(C)N1C[C@@H](CNS(=O)(=O)c2ccc([N+](=O)[O-])cc2[N+](=O)[O-])OC1=O [Compound 870]	16 (≈ 41.2 µM)	–
CCCCN1CC(COS(=O)(=O)c2cccc3nsnc23)OC1=O (centres unmarked) [Compound 905]	256 (≈ 689 µM)	–
O=C1O[C@@H](COS(=O)(=O)c2ccc([N+](=O)[O-])cc2)CN1C(=O)C1CC1 [Compound 929]	64 (≈ 173 µM)	–
O=C1O[C@@H](COS(=O)(=O)c2ccc([N+](=O)[O-])cc2)CN1C(=O)c1ccco1 [Compound 942]	32 (≈ 80.7 µM)	–
CC(C)N1C[C@H](COS(=O)(=O)c2ccc([N+](=O)[O-])cc2)OC1=O [Compound 952]	32 (≈ 92.9 µM)	–
CC(C)(C)OC(=O)/C=C/N1C[C@@H](COS(=O)(=O)c2ccc([N+](=O)[O-])cc2)OC1=O [Compound 1001]	64 (≈ 149 µM)	MIC [2]: 125 µg/mL (≈ 292 µM)
CN(C)C(=O)CN1C[C@@H](COS(=O)(=O)c2ccc(Cl)c3nonc23)OC1=O [Compound 1026]	256 (≈ 611 µM)	–
COC(=O)CN1C[C@@H](COS(=O)(=O)c2ccc(Cl)c([N+](=O)[O-])c2)OC1=O [Compound 1058]	256 (≈ 626 µM)	–
CC(=O)OC(C(=O)OC[C@@H]1CN(C)C(=O)O1)c1ccccc1 (some centres unmarked) [Compound 1097]	32 (≈ 104 µM)	–
CCN1C[C@@H](COS(=O)(=O)c2ccc(Cl)c3nonc23)OC1=O [Compound 1196]	256 (≈ 708 µM)	MIC [2]: 128 µg/mL (≈ 354 µM)
CCN1C[C@@H](COS(=O)(=O)c2ccc(Cl)c([N+](=O)[O-])c2)OC1=O [Compound 1210]	256 (≈ 702 µM)	–
CN(C)C(=O)/C=C/N1C[C@@H](COC(=O)c2cc(Cl)sc2Cl)OC1=O [Compound 1629]	256 (≈ 651 µM)	MIC [2]: 64 µg/mL (≈ 163 µM)
